Experimental data taken from paper PMC9687610, “Adenosine-Mimicking Derivatives of 3-Aminopyrazine-2-Carboxamide: Towards Inhibitors of Prolyl-tRNA Synthetase with Antimycobacterial Activity” (Biomolecules, 2022).
Converted amounts (≈) assume the structure as drawn. Like-named read-outs stand apart in the source and are kept apart here.

Assays:
[1] = system: Mycobacterium tuberculosis H37Ra ITM-M006710 (ATCC 9431); assay: Microplate Alamar Blue Assay (MABA), Mtb H37Ra; type: cell-based; details: Mycobacterium tuberculosis, 120 h, pH 6.6, MABA, Middlebrook 7H9 broth pH 6.6, resazurin after 120 h; read-out: Mtb H37Ra MIC
[2] = system: Mycobacterium smegmatis DSM 43465 (ATCC 607); assay: Microplate Alamar Blue Assay (MABA), M. smegmatis; type: cell-based; details: Mycolicibacterium smegmatis; MABA, resazurin after 48 h; read-out: M. smegmatis MIC
[3] = system: M. aurum DSM 43999 (ATCC 23366); assay: Microplate Alamar Blue Assay (MABA), M. aurum; type: cell-based; details: Mycolicibacterium aurum; MABA, resazurin after 72 h; read-out: M. aurum MIC
[4] = system: Staphylococcus aureus subsp. aureus CCM 4223 (ATCC 29213); assay: Antibacterial microdilution broth (EUCAST), SA; type: cell-based; details: Staphylococcus aureus; read after 24 h; read-out: SA MIC
[5] = system: Staphylococcus aureus subsp. aureus methicillin-resistant (MRSA) CCM 4750 (ATCC 43300); assay: Antibacterial microdilution broth (EUCAST), MRSA; type: cell-based; details: Staphylococcus aureus; read after 24 h; read-out: MRSA MIC
[6] = system: Staphylococcus epidermidis CCM 4418 (ATCC 12228); assay: Antibacterial microdilution broth (EUCAST), SE; type: cell-based; details: read after 24 h, read-out: SE MIC
[7] = system: Enterococcus faecalis CCM 4224 (ATCC 29212); assay: Antibacterial microdilution broth (EUCAST), EF; type: cell-based; details: Enterococcus faecalis; read after 24 h; read-out: EF MIC
[8] = system: Escherichia coli CCM 3954 (ATCC 25922); assay: Antibacterial microdilution broth (EUCAST), EC; type: cell-based; details: Escherichia coli; read after 24 h; read-out: EC MIC
[9] = system: Acinetobacter baumannii DSM 30007 (ATCC 19606); assay: Antibacterial microdilution broth (EUCAST), ACI; type: cell-based; details: Acinetobacter baumannii; read after 24 h; read-out: ACI MIC
[10] = system: Pseudomonas aeruginosa CCM 3955 (ATCC 27853); assay: Antibacterial microdilution broth (EUCAST), PA; type: cell-based; details: Pseudomonas aeruginosa; read after 24 h; read-out: PA MIC
[11] = system: Candida albicans CCM 8320 (ATCC 24433); assay: Antifungal microdilution broth (EUCAST), CA; type: cell-based; details: Candida albicans; read after 24 h; read-out: CA MIC
[12] = system: Candida krusei CCM 8271 (ATCC 6258); assay: Antifungal microdilution broth (EUCAST), CK; type: cell-based; details: Pichia kudriavzevii; read after 24 h; read-out: CK MIC
[13] = system: Candida parapsilosis CCM 8260 (ATCC 22019); assay: Antifungal microdilution broth (EUCAST), CP; type: cell-based; details: Lodderomyces parapsilosis; read after 24 h; read-out: CP MIC
[14] = system: Candida tropicalis CCM 8264 (ATCC 750); assay: Antifungal microdilution broth (EUCAST), CT; type: cell-based; details: Candida tropicalis; read after 24 h; read-out: CT MIC
[15] = system: Aspergillus fumigatus ATCC 204305; assay: Antifungal microdilution broth (EUCAST), AF; type: cell-based; details: Aspergillus fumigatus, ATCC204305; read after 24 h; read-out: AF MIC
[16] = system: Aspergillus flavus CCM 8363; assay: Antifungal microdilution broth (EUCAST), AFla; type: cell-based; details: Aspergillus flavus, CCM8363; read after 24 h; read-out: AFla MIC
[17] = system: Lichtheimia corymbifera CCM 8077; assay: Antifungal microdilution broth (EUCAST), LC; type: cell-based; details: Lichtheimia corymbifera, CCM8077; read after 24 h; read-out: LC MIC
[18] = system: Trichophyton interdigitale CCM 8377 (ATCC 9533); assay: Antifungal microdilution broth (EUCAST), TI; type: cell-based; details: Trichophyton interdigitale, 72 h, read-out: TI MIC
[19] = system: HepG2 human hepatocellular carcinoma cells; assay: In vitro HepG2 cytotoxicity (CellTiter 96); details: * limit = highest evaluated concentration (precipitation in medium), ** over the 1000 µM limit
[20] = system: Klebsiella pneumoniae CCM 4415 (ATCC 10031); assay: Antibacterial microdilution broth (EUCAST), KP; details: read after 24 h
[21] = Homo sapiens, HepG2, 24 h, read-out: HepG2 IC50, 24 h incubation

Structure (SMILES)	MIC [1]	MIC [2]	MIC [3]	MIC [4]	MIC [5]	MIC [6]	MIC [7]	MIC [8]	MIC [9]	MIC [10]	MIC [11]	MIC [12]	MIC [13]	MIC [14]	MIC [15]	MIC [16]	MIC [17]	MIC [18]	melting point	IC50 [19, 21]	also measured
NC(=O)c1nccnc1NC(=O)C1CCCCC1 [Compound 27]	125 µg/mL (≈ 503 µM)	250 µg/mL (≈ 1010 µM)	≥ 500 µg/mL	> 500 µM	> 500 µM	> 500 µM	> 500 µM	> 500 µM	> 500 µM	> 500 µM	> 500 µM	> 500 µM	> 500 µM	> 500 µM	> 500 µM	> 500 µM	> 500 µM	> 500 µM	105.5 to 107 °C	> 1000 µM	KP MIC [20]: > 500 µM
CCCC(=O)Nc1nccnc1C(N)=O [Compound 29]	≥ 500 µg/mL	≥ 500 µg/mL	≥ 500 µg/mL	> 500 µM	> 500 µM	> 500 µM	> 500 µM	> 500 µM	> 500 µM	> 500 µM	> 500 µM	> 500 µM	> 500 µM	> 500 µM	> 500 µM	> 500 µM	> 500 µM	> 500 µM	158.7 to 159.5 °C	> 1000 µM	KP MIC [20]: > 500 µM
CCCCCC(=O)Nc1nccnc1C(N)=O [Compound 30]	≥ 500 µg/mL	≥ 500 µg/mL	≥ 250 µg/mL	> 500 µM	> 500 µM	> 500 µM	> 500 µM	> 500 µM	> 500 µM	> 500 µM	> 500 µM	> 500 µM	> 500 µM	> 500 µM	> 500 µM	> 500 µM	> 500 µM	> 500 µM	138.4 to 139 °C	560 µM	KP MIC [20]: > 500 µM
CCCCCCC(=O)Nc1nccnc1C(N)=O [Compound 31]	≥ 500 µg/mL	≥ 500 µg/mL	≥ 500 µg/mL	> 125 µM	> 125 µM	> 125 µM	> 125 µM	> 125 µM	> 125 µM	> 125 µM	> 125 µM	> 125 µM	> 125 µM	> 125 µM	> 125 µM	> 125 µM	> 125 µM	> 125 µM	131.5 to 132.1 °C	> 250 µM	KP MIC [20]: > 125 µM
CCCCCCCC(=O)Nc1nccnc1C(N)=O [Compound 32]	250 µg/mL (≈ 946 µM)	250 µg/mL (≈ 946 µM)	125 µg/mL (≈ 473 µM)	> 250 µM	> 250 µM	> 250 µM	> 250 µM	> 250 µM	> 250 µM	> 250 µM	> 250 µM	> 250 µM	> 250 µM	> 250 µM	> 250 µM	> 250 µM	> 250 µM	> 250 µM	127.9 to 129.3 °C	> 1000 µM	KP MIC [20]: > 250 µM
CNC(=O)c1nccnc1NC(=O)c1ccc(C)cc1 [Compound 33]	250 µg/mL (≈ 925 µM)	≥ 500 µg/mL	125 µg/mL (≈ 462 µM)	> 500 µM	> 500 µM	> 500 µM	> 500 µM	> 500 µM	> 500 µM	> 500 µM	> 500 µM	> 500 µM	> 500 µM	> 500 µM	> 500 µM	> 500 µM	> 500 µM	> 500 µM	178.4 to 179.5 °C	765 µM	IC50 ([19]; read-out: HepG2 IC50, 24 h incubation): 764 µM; KP MIC [20]: > 500 µM
CNC(=O)c1nccnc1NC(=O)c1ccc(Cl)cc1 [Compound 34]	≥ 500 µg/mL	≥ 500 µg/mL	≥ 500 µg/mL	> 125 µM	> 125 µM	> 125 µM	> 125 µM	> 125 µM	> 125 µM	> 125 µM	> 125 µM	> 125 µM	> 125 µM	> 125 µM	> 125 µM	> 125 µM	> 125 µM	> 125 µM	204.2 to 205.1 °C	> 100 µM	KP MIC [20]: > 125 µM
CNC(=O)c1nccnc1NC(=O)c1ccc(Br)cc1 [Compound 35]	≥ 500 µg/mL	≥ 500 µg/mL	≥ 500 µg/mL	> 125 µM	> 125 µM	> 125 µM	> 125 µM	> 125 µM	> 125 µM	> 125 µM	> 125 µM	> 125 µM	> 125 µM	> 125 µM	> 125 µM	> 125 µM	> 125 µM	> 125 µM	202 to 202.5 °C	> 50 µM	KP MIC [20]: > 125 µM
